Entries after “also recorded” stand apart in the source; their conditions may differ.
Columns and labels:
[1] = system: NO production in RAW cells; experiment: Inhibition of NO production in RAW cells stimulated with interferon-γ; type: cell-based, mouse
[2] = system: RMPI 8226 human myeloma cells; experiment: Proliferation of RMPI 8226 human myeloma cells (Coulter counter); type: cell-based; conditions: FIG. 1; treated 3-4 days
Description: (§1) FIG. 1. TBEs inhibit proliferation of RMPI 8226 human myeloma cells and U937 human leukemia cells. Cells were treated with TBEs and triterpenoids for 3-4 days and counted by Coulter counter. […] CDDO is presently in clinical trial for treatment of acute myelogenous leukemia. TP-235 is the imidazolide derivative of CDDO.
(§2) Cells were treated with triterpenoids and TBEs for 3-4 days and counted by Coulter counter. […] CDDO is presently in clinical trial for treatment of acute myelogenous leukemia. TP-235 is the imidazolide derivative of CDDO.

[3] = system: U937 human leukemia cells; experiment: Proliferation of U937 human leukemia cells (Coulter counter); type: cell-based; conditions: FIG. 1; treated 3-4 days
Description: as §1, §2

heme oxygenase-1 [4] = experiment: Induction of heme oxygenase-1 in U937 cells (Western blot); type: cell-based, human; conditions: FIG. 2; 0.1-1 μM, 7 hours
Description: FIG. 2. […] Cells were incubated with TBEs and triterpenoids (0.1-1 μM) for 7 hours. Total cell lysates were analyzed by SDS-PAGE, probed with an HO-1 antibody, and developed by ECL. […] None of the other TBEs that were tested provided significant induction of heme oxygenase.
Cells were incubated with triterpenoids or TBEs (0.1-1 μM) for 7 hours. Total cell lysates were analyzed by SDS-PAGE, probed with an HO-1 antibody, and developed by ECL. […] None of the other TBEs that were tested provided significant induction of heme oxygenase.

heme oxygenase-1 [5] = experiment: Induction of heme oxygenase-1 in liver of CD-1 mice after gavage; type: in vivo
Description: FIG. 3. […] CD-1 mice (2 per group) were gavaged with TBEs or CDDO-Im in DMSO. After 6 h, livers were harvested and homogenized. Lysates were separated by SDS-PAGE, probed with HO-1 antibodies, and developed by ECL.
FIG. 11. […] Male CD-1 mice (3 per group) were gavaged with 1 μmol TBEs, CDDO or CDDO-Im in DMSO. Six hours later, livers were harvested and homogenized. Lysates were separated by SDS-PAGE, probed with HO-1 antibodies, and developed by ECL.
CD-1 mice (2 per group) were gavaged with TBEs or CDDO-Im in DMSO. After 6 h, livers were harvested and homogenized. Lysates were separated by SDS-PAGE, probed with HO-1 antibodies, and developed by ECL.

heme oxygenase-1 [6] = experiment: Induction of heme oxygenase-1 in stomach of CD-1 mice after gavage; type: in vivo; conditions: FIG. 12; male CD-1 mice, 1 μmol by gavage in DMSO, six hours
Text: FIG. 12. […] Male CD-1 mice (3 per group) were gavaged with 1 μmol TBEs, CDDO or CDDO-Im in DMSO. Six hours later, stomachs were harvested and homogenized. Lysates were separated by SDS-PAGE, probed with HO-1 antibodies, and developed by ECL.

[7] = system: CD11b expression in U937 cells; experiment: CD11b expression in U937 cells (FACS); type: cell-based, human; conditions: FIG. 4; 10-100 nM, 4 days
Description: FIG. 4. TBE-31 induces CD11b expression in U937 cells. Cells were incubated with CDDO-Im or TBE-31 (10-100 nM) for 4 days. CD11b expression was measured by FACS analysis. Induction of CD11b is a marker of leukemia cell differentiation.
Cells were incubated with CDDO-Im or TBE-31 (10-100 nM) for 4 days. CD11b expression was measured by FACS analysis. Induction of CD11b is a marker of leukemia cell differentiation.

iNOS = experiment: Inhibition of iNOS induction in RAW cells stimulated with IFN-γ (Western blot); type: cell-based, mouse; conditions: FIG. 5; IFNg 10 ng/ml, 24 hours
Jurkat cells = experiment: Proliferation of Jurkat cells (Coulter counter); type: cell-based; conditions: FIG. 6; 3-4 days
Description: FIG. 6. TBEs inhibit proliferation of Jurkat cells. Cells were treated with TBEs and triterpenoids for 3-4 days and counted by Coulter counter. […] Thus, it is to be expected that TBEs may have useful activities in regulation of lymphocyte, as well as macrophage, function.
Cells were treated with TBEs for 3-4 days and counted by Coulter counter.

[8] = system: A549 human lung cancer cells; experiment: Apoptosis in A549 human lung cancer cells; type: cell-based; conditions: FIG. 7; 24 h
Description: FIG. 7. TBE-31 induces apoptosis in A549 human lung cancer cells. Cells were treated with TBE-31 for 24 h. A549 is a classic human lung cancer cell line.
Cells were treated for 24 h. A549 is a classic human lung cancer cell line.

U937 cells = experiment: Apoptosis in U937 cells (Annexin V); type: cell-based, human; conditions: FIG. 8, 24 hours
Description: FIG. 8. Induction of apoptosis in U937 cells by TBEs. Cells were treated with TBEs and triterpenoids for 24 hours.
Cells were treated for 24 hours.

HO-1 = experiment: Induction of HO-1 in RAW cells (Western blot); type: cell-based, mouse; conditions: FIG. 9; 30-300 nM, 24 hours
[9] = system: aflatoxin-induced tumorigenesis; design: species or system F344 rats; conditions: rat, in vivo

C#CC12C=C(C#N)C(=O)C=C1C1(C)C=C(C#N)C(=O)C(C)(C)C1CC2 (racemic) [TBE-31, 10a-ethynyl-4b,8,8-trimethyl-3,7-dioxo-3,4b,7,8,8a,9,10,10a-octahydrophenanthrene-2,6-dicarbonitrile]
IC50 ([1]; Mus musculus, Table 5, C-8a functionalized TBE-9 analogs, stimulated with interferon-γ, read-out: IC50 (nM), NO production in RAW cells): 1 nM | Potency for inhibition of NO production in RAW cells (in words) ([1]; RAW cells, interferon-γ): extremely potent at one nanomolar concentrations; also recorded: higher than CDDO and equal to TP-225 | Inhibition of proliferation of RMPI 8226 human myeloma cells [2]: by far the most potent; also recorded: equivalent to that of CDDO itself (TP-151) | Inhibition of proliferation of U937 human leukemia cells [3]: by far the most potent; also recorded: more potent than CDDO | Induction of heme oxygenase-1 in U937 cells (heme oxygenase-1 [4]): potent inducer of heme oxygenase; also recorded: markedly more potent than TP-151 (CDDO), and almost as potent as TP-235 | Induction of heme oxygenase-1 in liver in vivo (heme oxygenase-1 [5]; FIG. 3, CD-1 mice, gavage in DMSO, livers after 6 h): orally active agent; also recorded: comparable to that found with CDDO-Imidazolide | Induction of heme oxygenase-1 in liver (heme oxygenase-1 [5]; FIG. 11, male CD-1 mice, 1 μmol by gavage in DMSO, six hours): potent inducer of heme oxygenase-1 in liver | Induction of heme oxygenase-1 in stomach (heme oxygenase-1 [6]): induces heme oxygenase-1 in stomach | Induction of CD11b expression in U937 cells [7]: strongly induces CD11b at 100 nM; also recorded: comparable to that of CDDO-Im at 10 and 30 nM; also recorded: more potent than CDDO-Im at 100 nM | Suppression of induction of iNOS in RAW 264.7 cells (iNOS): potent suppressor of induction of iNOS; also recorded: significantly more potent than CDDO, and almost as potent as CDDO-Imidazolide | Inhibition of proliferation of Jurkat cells (Jurkat cells): extremely active, more so than CDDO (TP-151) | Induction of apoptosis in A549 cells [8]: can induce both early and late apoptosis | Induction of apoptosis in U937 cells (U937 cells): most active of the TBEs; also recorded: markedly more active than CDDO (TP-151) | Induction of HO-1 in RAW cells (HO-1): higher inducer than CDDO-Im | Formation of preneoplastic (GST-P positive) foci in liver [9]: reduces the formation of preneoplastic foci

From patent publication US8067394B2, “Synthesis and biological activities of new tricyclic-bis-enones (TBEs)” (Trustees of Dartmouth College, priority 2006, dated 2011)
